Data from patent US8841333B2, “Methods for treating nephrolithiasis” (Takeda Pharmaceuticals U.S.A., Inc., priority 2005, dated 2014).

Assay: Double-blind 4-week study plus open-label extension of febuxostat in hyperuricemic subjects with gout and a history of nephrolithiasis
Assay type: in vivo, human
Description: Eighteen (18) hyperuricemic subjects with gout and a history of nephrolithiasis in their medical history were examined. Specifically, these eighteen subjects were part of a double-blind (DB) four (4) week study in which they received 40, 80 or 120 mg once daily (hereinafter referred to as “QD”) of 2-[3-cyano-4-(2-methylpropoxy)phenyl]-4-methylthiazole-5-carboxylic acid (hereinafter called “febuxostat”) or a placebo, followed by an open-label (OL) extension study of febuxostat 80 mg QD titrated to 40 mg or 120 mg QD of febuxostat based on serum uric acid levels and adverse events. The subjects were predominantly male (specifically, sixteen (16)) Caucasian, with a mean age of 55 years. Eleven (11) of the subjects had gout for more than 10 years, five (5) subjects had gout for between 5 to 10 years and two (2) subjects had gout for between 1 to 5 years. Overall, subject experienced between 1 and 20 attacks over a 2 to 45 year period prior to baseline. Twelve (12) of the subjects were classified as renally impaired (their creatinine clearance was <80 ml/minute). Six (6) subjects were considered to be uric acid overproducers (urinary uric acid excretion was greater than 800 mg/day). Comorbid conditions in these subjects included the following: hyperlipidemia (78%), hypertension (72%), obesity (56%) and coronary artery disease (17%). The mean serum urate for these subjects at baseline was 10.0 mg/dL. All subjects completed this DB study. Fifteen (15) subjects rolled over to the OL study with thirteen (13) completing treatment for a duration of greater than thirty (30) months. The majority of subjects (11/13) received daily febuxostat in the amount of 80 mg QD with two (2) subjects having their dose titrated to febuxostat 120 mg QD as per study protocol because of a post-baseline serum urate of ≧6.0 mg/dL.

## Cc1nc(-c2ccc(OCC(C)C)c(C#N)c2)sc1C(=O)O [febuxostat, 2-[3-cyano-4-(2-methylpropoxy)phenyl]-4-methylthiazole-5-carboxylic acid]
DB and OL portions, greater than 30 months of febuxostat treatment, three stones in total, one occurred on placebo, all calcium oxalate
  subjects reporting kidney stones: 2 subjects out of the 18 subjects
DB and OL study, febuxostat 40-120 mg QD
  adverse events: self-limiting and transient
At last visit versus baseline, febuxostat 40, 80 or 120 mg QD
  mean reduction in serum urate: 47%
Hyperuricemic gout subjects with history of nephrolithiasis, febuxostat 40, 80 or 120 mg QD, baseline mean serum urate 10.0 mg/dL
  mean serum urate at last visit: 5.2 mg/dL
